Results as given in paper PMC9516332 (Frontiers in Oncology, 2022).
Like-named read-outs stand apart in the source and are kept apart here.

Legend:
Assay in all cases: Kinase panel profiling at 1 µmol/L (MSA or IMAP), percentage inhibition
Assay type in all cases: biochemical
[1] = target: panel of 255 wild-type kinases (Homo sapiens, UniProt P06239); conditions: read-out: %-inhibition at 1 µmol/L, LCK
[2] = target: panel of 255 wild-type kinases (Homo sapiens, UniProt P08922); conditions: read-out: %-inhibition at 1 µmol/L, ROS
[3] = target: panel of 255 wild-type kinases (Homo sapiens, UniProt P11802); conditions: read-out: %-inhibition CDK4/CycD3
[4] = target: panel of 255 wild-type kinases (Homo sapiens, UniProt P41240); conditions: read-out: %-inhibition at 1 µmol/L, CSK
[5] = target: T1, panel of 255 wild-type kinases (Homo sapiens, UniProt Q02156); conditions: read-out: %-inhibition at 1 µmol/L, PKCε
T1 sequence (Q02156 1-737): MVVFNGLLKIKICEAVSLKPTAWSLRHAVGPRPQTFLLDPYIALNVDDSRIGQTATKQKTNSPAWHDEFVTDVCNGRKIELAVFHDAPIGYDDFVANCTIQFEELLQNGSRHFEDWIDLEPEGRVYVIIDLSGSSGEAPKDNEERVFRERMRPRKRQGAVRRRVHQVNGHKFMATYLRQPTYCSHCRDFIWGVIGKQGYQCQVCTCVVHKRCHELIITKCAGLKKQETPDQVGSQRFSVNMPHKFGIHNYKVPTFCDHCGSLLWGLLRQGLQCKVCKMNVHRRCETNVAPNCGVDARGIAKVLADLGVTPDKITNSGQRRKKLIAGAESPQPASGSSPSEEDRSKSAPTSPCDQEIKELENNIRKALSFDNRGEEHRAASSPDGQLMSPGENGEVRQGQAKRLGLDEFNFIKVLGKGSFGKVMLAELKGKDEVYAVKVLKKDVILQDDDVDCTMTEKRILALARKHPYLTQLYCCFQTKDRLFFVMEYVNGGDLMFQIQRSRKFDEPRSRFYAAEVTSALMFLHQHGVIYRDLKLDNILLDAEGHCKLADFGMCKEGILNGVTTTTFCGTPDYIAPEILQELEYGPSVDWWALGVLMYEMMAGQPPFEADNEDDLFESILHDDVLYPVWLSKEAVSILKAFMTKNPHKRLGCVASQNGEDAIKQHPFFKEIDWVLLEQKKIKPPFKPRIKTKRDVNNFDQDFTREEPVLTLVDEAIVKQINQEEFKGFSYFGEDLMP

[6] = target: panel of 255 wild-type kinases (Homo sapiens, UniProt Q05655); conditions: read-out: %-inhibition at 1 µmol/L, PKCδ
[7] = target: panel of 255 wild-type kinases (Homo sapiens, UniProt Q08345); conditions: read-out: %-inhibition at 1 µmol/L, DDR1
[8] = target: panel of 255 wild-type kinases (Homo sapiens, UniProt Q13177); conditions: read-out: %-inhibition, PAK2
[9] = target: panel of 255 wild-type kinases (Homo sapiens, UniProt Q8TDX7); conditions: read-out: %-inhibition, NEK7
[10] = target: T2, panel of 255 wild-type kinases (Homo sapiens, UniProt Q96L34); conditions: read-out: %-inhibition, MARK4
T2 sequence (Q96L34 1-752): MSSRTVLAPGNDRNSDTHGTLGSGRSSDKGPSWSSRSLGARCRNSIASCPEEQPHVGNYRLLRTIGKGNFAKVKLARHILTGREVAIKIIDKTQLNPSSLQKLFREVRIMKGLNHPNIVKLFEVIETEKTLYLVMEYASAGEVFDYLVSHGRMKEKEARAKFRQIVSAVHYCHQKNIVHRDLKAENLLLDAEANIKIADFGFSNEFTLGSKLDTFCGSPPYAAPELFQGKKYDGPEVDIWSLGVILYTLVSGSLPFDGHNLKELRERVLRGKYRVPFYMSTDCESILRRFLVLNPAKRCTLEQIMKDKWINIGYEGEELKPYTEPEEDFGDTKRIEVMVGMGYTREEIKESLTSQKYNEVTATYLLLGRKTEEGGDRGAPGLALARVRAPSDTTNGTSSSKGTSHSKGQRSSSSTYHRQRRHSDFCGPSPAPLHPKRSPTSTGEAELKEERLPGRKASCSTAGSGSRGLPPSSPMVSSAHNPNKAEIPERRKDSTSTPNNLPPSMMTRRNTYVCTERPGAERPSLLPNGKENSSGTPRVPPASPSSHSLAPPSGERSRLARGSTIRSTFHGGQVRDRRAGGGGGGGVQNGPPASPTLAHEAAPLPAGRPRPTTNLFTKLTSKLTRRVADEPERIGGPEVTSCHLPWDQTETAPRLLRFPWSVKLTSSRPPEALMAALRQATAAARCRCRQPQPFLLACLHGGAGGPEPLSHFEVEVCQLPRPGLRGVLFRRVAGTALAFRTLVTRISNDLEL

[11] = kinase LCK, 1 µmol/L single concentration
[12] = kinase ROS, 1 µmol/L single concentration
[13] = CDK4/CycD3 kinase assay, 1 µmol/L single concentration
[14] = kinase CSK, 1 µmol/L single concentration
[15] = kinase PKCε, 1 µmol/L single concentration
[16] = kinase PKCδ, 1 µmol/L single concentration
[17] = kinase DDR1, 1 µmol/L single concentration
[18] = PAK2, 1 µmol/L single concentration
[19] = NEK7, 1 µmol/L single concentration
[20] = MARK4, 1 µmol/L single concentration

Structure (SMILES)	inhibition at 1 µM [1, 11]	inhibition at 1 µM [2, 12]	inhibition at 1 µM [3, 13]	inhibition at 1 µM [4, 14]	inhibition at 1 µM [5, 15]	inhibition at 1 µM [6, 16]	inhibition at 1 µM [7, 17]	inhibition at 1 µM [8, 18]	inhibition at 1 µM [9, 19]	inhibition at 1 µM [10, 20]	inhibition at 1 µM [1]	inhibition at 1 µM [2]	inhibition at 1 µM [3]	inhibition at 1 µM [4]	inhibition at 1 µM [5]	inhibition at 1 µM [6]	inhibition at 1 µM [7]	inhibition at 1 µM [8]	inhibition at 1 µM [9]	inhibition at 1 µM [10]
Cn1cnc2c(F)c(Nc3ccc(Br)cc3Cl)c(C(=O)NOCCO)cc21 [selumetinib]	8%	15%	-1.85%	0.0795%	0.617%	-4.35%	4.73%	-3.7%	-0.844%	-11%										
CCc1nc(C(N)=O)c(Nc2ccc(N3CCC(N4CCN(C)CC4)CC3)c(OC)c2)nc1NC1CCOCC1 [gilteritinib]	97%	100%	46%	23%	27%	12%	99%	10%	-2%	53%										
CCN1C(=O)N(c2c(F)c(OC)cc(OC)c2F)Cc2cnc3[nH]c(CN4CCOCC4)cc3c21 [pemigatinib]	17%	3.74%	9%	2.28%	5%	0.471%	41%	6%	3%	52%										
CNC(=O)c1ccc(-c2cnc3ncc(Cc4ccc5ncccc5c4)n3n2)cc1F [capmatinib]											4.23%	21%	-3.55%	-9%	-19%	-10%	-2.22e-14%	-1.68%	-9%	6%
C[C@H](Nc1ncnc2nc[nH]c12)c1cc2cccc(Cl)c2c(=O)n1-c1ccccc1 [duvelisib]	7%	-3.53%	-10%	1.86%	13%	1.67%	6%	-1%	-0.791%	4.7%										
